According to patent publication US8017612B2, “Piperazine compound and use thereof as a HCV polymerase inhibitor” (priority 2006, dated 2011):
Structures can show the parent of a compound that is named as a salt.

How the values were obtained:
[1] = target: T1, HCV polymerase (NS5B) type 1b (Hepatitis C virus genotype 1b, UniProt P26663); experiment: Assay of enzyme (HCV polymerase) inhibitory activity, type 1b enzyme; type: biochemical, HCV BK strain (type 1b); settings: HCV polymerase inhibitory activity (IC50), 1b, type 1b enzyme 0.5 μg/ml, 25° C., 60 min
T1 construct: a region encoding NS5B (J Virol 1991 March, 65(3), 1105-13, 544 amino acids after deletion of 47 amino acids on the C-terminal); 6xHis (C); made in house; host or cells: Escherichia coli
Method in brief: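 Rxn: NS5B 1b (BK, ΔC47, His6) 0.5 μg/ml; substrate RNA 5 μg/ml; ATP/GTP/CTP 50 μM, UTP 2 μM + [5,6-3H]UTP; 20 mM Tris pH 7.5, 5 mM MgCl2, 50 mM NaCl, 1 mM EDTA/DTT. 25 °C, 60 min. Stop with TCA/pyrophosphate, filter, scintillation count; IC50 vs. untreated.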

[2] = target: T2, HCV polymerase (NS5B) type 1a (Hepatitis C virus genotype 1a, UniProt P26664); experiment: Assay of enzyme (HCV polymerase) inhibitory activity, type 1a enzyme; type: biochemical, HCV type 1a (cloned from the blood of patients); settings: HCV polymerase inhibitory activity (IC50), 1a, type 1a enzyme 1.5 μg/ml, 25° C., 60 min
T2 construct: made in house; host or cells: Escherichia coli (by the 'similar method' of the 1b enzyme)
Method in brief: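 NS5B Δ47 C-term His6 (type 1a, 1.5 μg/ml); substrate RNA 5 μg/ml; ATP/GTP/CTP 50 μM, UTP 2 μM + [5,6-3H]UTP; Tris pH 7.5, MgCl2 5 mM; 25° C, 60 min. TCA/pyrophosphate stop, GF/B filter, scintillation. IC50 vs no-compound control.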

Compound	IC50 [1] [nM]	IC50 [2] [nM]
CCC(F)(F)c1ccc(CNC(=O)[C@H]2CN(c3nc4nc[nH]c(=O)c4s3)CCN2S(=O)(=O)c2ccc(OC(F)(F)F)cc2)cc1 [Example 633, (R)-4-(7-oxo-6,7-dihydro-thiazolo[4,5-d]pyrimidin-2-yl)-1-(4-trifluoromethoxy-benzenesulfonyl)-piperazine-2-carboxylic acid 4-(1,1-difluoro-propyl)-benzylamide]	< 100	< 100
CCCn1ccc(CNC(=O)[C@H]2CN(C(C)=O)CCN2S(=O)(=O)c2ccc(OC(F)(F)F)cc2)cc1=O [Example 634, (R)-4-acetyl-1-(4-trifluoromethoxy-benzenesulfonyl)-piperazine-2-carboxylic acid (2-oxo-1-propyl-1,2-dihydro-pyridin-4-ylmethyl)-amide]	> 1000	100 to 1000
CCCc1ccc(CNC(=O)[C@H]2CN(C(C)=O)CCN2S(=O)(=O)c2ccc(OC(F)(F)F)cc2)cc1N [Example 635, (R)-4-acetyl-1-(4-trifluoromethoxy-benzenesulfonyl)-piperazine-2-carboxylic acid 3-amino-4-propyl-benzylamide]	100 to 1000	> 1000
COc1cccc(CNC(=O)[C@H]2CN(C(C)=O)CCN2S(=O)(=O)c2ccc(OC(F)(F)F)cc2)c1 [Example 636, (R)-4-acetyl-1-(4-trifluoromethoxy-benzenesulfonyl)-piperazine-2-carboxylic acid 3-methoxy-benzylamide]	> 1000	> 1000
CC(=O)N1CCN(S(=O)(=O)c2ccc(OC(F)(F)F)cc2)[C@@H](C(=O)NCc2cccc(O)c2)C1 [Example 637, (R)-4-acetyl-1-(4-trifluoromethoxy-benzenesulfonyl)-piperazine-2-carboxylic acid 3-hydroxy-benzylamide]	> 1000	> 1000
CCC(F)(F)c1ccc(CNC(=O)[C@H]2CN(c3cnc(CN)c(N)n3)CCN2S(=O)(=O)c2ccc(OC(F)(F)F)cc2)cc1 [Example 638, (R)-6′-amino-5′-aminomethyl-4-(4-trifluoromethoxy-benzenesulfonyl)-3,4,5,6-tetrahydro-2H-[1,2′]bipyrazinyl-3-carboxylic acid 4-(1,1-difluoro-propyl)-benzylamide]	< 100	< 100
O=C(NCc1nc2ccccc2o1)[C@H]1CN(c2cnc3cncnc3n2)CCN1S(=O)(=O)c1ccc(OC(F)(F)F)cc1 [Example 639, (R)-4-pteridin-7-yl-1-(4-trifluoromethoxy-benzenesulfonyl)-piperazine-2-carboxylic acid (benzoxazol-2-ylmethyl)-amide]	100 to 1000	> 1000
CCC(F)(F)c1ccc(CNC(=O)[C@H]2CN(c3nc4nn[nH]c(=O)c4s3)CCN2S(=O)(=O)c2ccc(OC(F)(F)F)cc2)cc1 [Example 640, (R)-4-(4-oxo-3,4-dihydro-thiazolo[4,5-d][1,2,3]triazin-6-yl)-1-(4-trifluoromethoxy-benzenesulfonyl)-piperazine-2-carboxylic acid 4-(1,1-difluoro-propyl)-benzylamide]	< 100	< 100
CC(=O)N1CCN(S(=O)(=O)c2ccc(OC(F)(F)F)cc2)[C@@H](C(=O)NCc2ccc(C(C)(C)C#N)cc2)C1 [Example 641, (R)-4-acetyl-1-(4-trifluoromethoxy-benzenesulfonyl)-piperazine-2-carboxylic acid 4-(cyano-dimethyl-methyl)-benzylamide]	100 to 1000	100 to 1000
CC(=O)N1CCN(S(=O)(=O)c2ccc(OC(F)(F)F)cc2)[C@@H](C(=O)NCc2ccccc2-c2ccccc2)C1 [Example 642, (R)-4-acetyl-1-(4-trifluoromethoxy-benzenesulfonyl)-piperazine-2-carboxylic acid (biphenyl-2-ylmethyl)-amide]	> 1000	> 1000
CC(=O)N1CCN(S(=O)(=O)c2ccc(OC(F)(F)F)cc2)[C@@H](C(=O)NCC2CCCCC2)C1 [Example 643, (R)-4-acetyl-1-(4-trifluoromethoxy-benzenesulfonyl)-piperazine-2-carboxylic acid cyclohexylmethyl-amide]	> 1000	> 1000
CC(=O)N1CCN(S(=O)(=O)c2ccc(OC(F)(F)F)cc2)[C@@H](C(=O)NCC2CCN(C(=O)OC(C)(C)C)CC2)C1 [Example 644, 4-({[(R)-4-acetyl-1-(4-trifluoromethoxy-benzenesulfonyl)-piperazine-2-carbonyl]-amino}-methyl)-piperidine-1-carboxylic acid tert-butyl ester]	> 1000	> 1000
COc1ccc(CNC(=O)[C@H]2CN(C(C)=O)CCN2S(=O)(=O)c2ccc(OC(F)(F)F)cc2)cc1O [Example 645, (R)-4-acetyl-1-(4-trifluoromethoxy-benzenesulfonyl)-piperazine-2-carboxylic acid 3-hydroxy-4-methoxy-benzylamide]	> 1000	> 1000
CCCc1ccc(CNC(=O)[C@H]2CN(C(C)=O)CCN2S(=O)(=O)c2ccc(OC(F)(F)F)cc2)c(=O)[nH]1 [Example 646, (R)-4-acetyl-1-(4-trifluoromethoxy-benzenesulfonyl)-piperazine-2-carboxylic acid (2-oxo-6-propyl-1,2-dihydro-pyridin-3-ylmethyl)-amide]	> 1000	> 1000
CCC(F)(F)c1ccc(CNC(=O)[C@H]2CN(c3nc4nsnc4nc3O)CCN2S(=O)(=O)c2ccc(OC(F)(F)F)cc2)cc1 [Example 647, (R)-4-(6-hydroxy-[1,2,5]thiadiazolo[3,4-b]pyrazin-5-yl)-1-(4-trifluoromethoxy-benzenesulfonyl)-piperazine-2-carboxylic acid 4-(1,1-difluoro-propyl)-benzylamide]	100 to 1000	> 1000
CCC(F)(F)c1ccc(CNC(=O)[C@H]2CN(c3cnc4cnccc4n3)CCN2S(=O)(=O)c2ccc(OC(F)(F)F)cc2)cc1 [Example 648, (R)-4-pyrido[3,4-b]pyrazin-2-yl-1-(4-trifluoromethoxy-benzenesulfonyl)-piperazine-2-carboxylic acid 4-(1,1-difluoro-propyl)-benzylamide]	< 100	< 100
COc1nc(CNC(=O)[C@H]2CN(C(C)=O)CCN2S(=O)(=O)c2ccc(OC(F)(F)F)cc2)ccc1C [Example 649, (R)-4-acetyl-1-(4-trifluoromethoxy-benzenesulfonyl)-piperazine-2-carboxylic acid (6-methoxy-5-methyl-pyridin-2-ylmethyl)-amide]	> 1000	> 1000
CCC(F)(F)c1ccc(CNC(=O)[C@H]2CN(c3cnc4c(n3)NS(=O)(=O)NC4)CCN2S(=O)(=O)c2ccc(OC(F)(F)F)cc2)cc1 [Example 650, (R)-4-(2,2-dioxo-1,2,3,4-tetrahydro-2λ^6-pyrazino[2,3-c][1,2,6]thiadiazin-7-yl)-1-(4-trifluoromethoxy-benzenesulfonyl)-piperazine-2-carboxylic acid 4-(1,1-difluoro-propyl)-benzylamide]	< 100	100 to 1000
CCOc1ccc(CNC(=O)[C@H]2CN(c3cnc4cncnc4n3)CCN2S(=O)(=O)c2ccc(OC(F)(F)F)cc2)cc1 [Example 651, (R)-4-pteridin-7-yl-1-(4-trifluoromethoxy-benzenesulfonyl)-piperazine-2-carboxylic acid 4-ethoxy-benzylamide]	< 100	< 100
O=C(NCc1ccc(-c2cccs2)cc1)[C@H]1CN(c2cnc3cncnc3n2)CCN1S(=O)(=O)c1ccc(OC(F)(F)F)cc1 [Example 652, (R)-4-pteridin-7-yl-1-(4-trifluoromethoxy-benzenesulfonyl)-piperazine-2-carboxylic acid 4-thiophen-2-yl-benzylamide]	< 100	< 100
O=C(NCc1ccc(Br)cc1)[C@H]1CN(c2cnc3cncnc3n2)CCN1S(=O)(=O)c1ccc(OC(F)(F)F)cc1 [Example 653, (R)-4-pteridin-7-yl-1-(4-trifluoromethoxy-benzenesulfonyl)-piperazine-2-carboxylic acid 4-bromo-benzylamide]	< 100	< 100
CC(=O)N1CCN(S(=O)(=O)c2ccc(OC(F)(F)F)cc2)[C@@H](C(=O)NCC2CCNCC2)C1 [Example 654, (R)-4-acetyl-1-(4-trifluoromethoxy-benzenesulfonyl)-piperazine-2-carboxylic acid (piperidin-4-ylmethyl)-amide hydrochloride]	> 1000	> 1000
CC(=O)N1CCN(S(=O)(=O)c2ccc(OC(F)(F)F)cc2)[C@@H](C(=O)NCc2ccc(Br)cc2)C1 [Example 655, (R)-4-acetyl-1-(4-trifluoromethoxy-benzenesulfonyl)-piperazine-2-carboxylic acid 4-bromo-benzylamide]	100 to 1000	100 to 1000
O=C(NCc1ccc(C2CC2)cc1)[C@H]1CN(c2cnc3cncnc3n2)CCN1S(=O)(=O)c1ccc(OC(F)(F)F)cc1 [Example 656, (R)-4-pteridin-7-yl-1-(4-trifluoromethoxy-benzenesulfonyl)-piperazine-2-carboxylic acid 4-cyclopropyl-benzylamide]	< 100	< 100
